Measured values reported in PubChem BioAssay (NCI).
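In this assay, cells in 96-well plates receive the compound at five concentrations for 48 hours. Endpoints are linearly interpolated between the surrounding concentrations. TGI denotes the concentration required for complete inhibition of growth.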 Where a SMILES comes first, the peptide text is derived from it. [ ]: non-standard residue; d: D form. The star is where a group is joined. ξ: configuration not given here. NMeF = CN[C@@H](Cc1ccccc1)C(=O)O; ξNMeV = CNC(C(=O)O)C(C)C; Boc = CC(C)(C)OC(=O)*; OBn = c1ccc(CO*)cc1

Columns and labels:
Assay in all cases: DTP human tumour cell line panel, 48 h
[1] = system: SK-OV-3 ovarian
[2] = system: CCRF-CEM leukemia
[3] = system: TK-10 renal
[4] = system: SF-295 CNS
[5] = system: A498 renal
[6] = system: NCI-H460 lung
[7] = system: SK-MEL-5 melanoma
[8] = system: 786-0 renal
[9] = system: SK-MEL-28 melanoma
[10] = system: CAKI-1 renal
[11] = system: KM12 colon
[12] = system: SK-MEL-2 melanoma
[13] = system: UACC-257 melanoma
[14] = system: M14 melanoma
[15] = system: LOX IMVI melanoma
[16] = system: MCF7 breast
[17] = system: DU-145 prostate

Compound | TGI [1] [µM] | TGI [2] [µM] | TGI [3] [µM] | TGI [4] [µM] | TGI [5] [µM] | TGI [6] [µM] | TGI [7] [µM] | TGI [8] [µM] | TGI [9] [µM] | TGI [10] [µM] | TGI [11] [µM] | TGI [12] [µM] | TGI [13] [µM] | TGI [14] [µM] | TGI [15] [µM] | TGI [16] [µM] | TGI [17] [µM]
NCC(NC(=O)OCc1ccccc1)C(=O)O (centres undefined) | > 50 | > 50 | > 50 | > 50 | > 50 | > 50 | > 50 | > 50 | > 50 | > 50 | > 50 | > 50 | > 50 | > 50 | > 50 |  | 
CCN(CC)Cc1nc(C2CCC([N+](=O)[O-])O2)no1 (centres undefined) | > 100 | > 100 | > 100 | > 100 |  | 44.5 | 30.2 | > 100 | 53.8 | > 100 | > 100 | 72.6 | 40.8 | 28.3 | > 100 | 32.2 | > 100
Cc1ccc(S(=O)(=O)Oc2ccc(OS(=O)(=O)c3ccc(C)cc3)c3c2C(=O)c2ccccc2C3=O)cc1 | > 100 | > 100 | > 100 |  |  | > 100 | > 100 | > 100 | > 100 | > 100 | > 100 | > 100 | > 100 | > 100 | > 100 | > 100 | > 100
N#CC1CCN2N=C(c3ccccc3)SC12c1ccccc1 (centres undefined) | > 100 |  | > 100 | > 100 |  | > 100 | > 100 | > 100 | > 100 | > 100 | > 100 | > 100 | > 100 | > 100 | > 100 | > 100 | 
C/C(=N/NC(=O)C(N)=O)C(CC(C(=O)Nc1ccccc1C)/C(C)=N\NC(=O)C(N)=O)C(=O)Nc1ccccc1C (centres undefined) | > 100 | > 100 | > 100 | > 100 | > 100 | > 100 | > 100 | > 100 | > 100 | > 100 | > 100 | > 100 | > 100 | > 100 | > 100 |  | 
COC(=O)/C=C1/N=C(N(C)/N=C/c2ccccc2)NC1=O | > 100 | > 100 | > 100 | > 100 |  | > 100 | > 100 | > 100 | > 100 | > 100 | > 100 | > 100 | > 100 | > 100 | > 100 | > 100 | > 100
CC(C)C(C(=O)N1CCC[C@@H]1C(=O)OCc1ccccc1)N(C)C(=O)C(C(C)C)N(C)C(=O)[C@H](Cc1ccccc1)N(C)C(=O)[C@H](NC(=O)OC(C)(C)C)C(C)C (some centres undefined) (Boc-[dV][NMeF][ξNMeV][ξNMeV][dP]-OBn) | > 100 | > 100 | > 100 | > 100 | > 100 | > 100 | > 100 | > 100 | > 100 |  | > 100 | > 100 | > 100 | > 100 | > 100 |  | 
CC(C)[Si](OC1=C(C(=O)N(C)c2ccccc2Cl)CCC1)(C(C)C)C(C)C | 32.8 |  | 39.1 | 27.6 | 30.7 | 62.1 | 41.2 | 48.9 | 39.7 | 36.5 | 50.2 |  | 43.4 | 35.7 | 33.7 |  | 44.3
COc1ccc(C2=NN(c3ccccc3)C(c3cc4cc(Br)ccc4nc3Cl)C2)cc1 (centres undefined) | > 25 | > 25 |  | > 25 |  |  | > 25 | > 25 | > 25 | > 25 | > 25 | > 25 |  | > 25 | > 25 |  | > 25
CN1CCN(C(=S)N(C(=O)c2ccco2)c2ccccc2)CC1 |  | > 100 | > 100 | > 100 |  | > 100 | > 100 | > 100 | > 100 |  | > 100 | > 100 | > 100 | > 100 | > 100 | > 100 | > 100
COC(=O)N/N=C/c1oc(-c2ccccc2)c(-c2ccccc2)c1[N+](=O)[O-] | > 100 |  | > 100 | > 100 |  | > 100 | > 100 | > 100 | > 100 | > 100 | > 100 |  | > 100 | > 100 | > 100 |  | 
Cc1c(C(=O)O)c2cc3ccccc3cc2c(=O)n1C | > 10 |  | > 10 | > 10 |  | > 10 |  | > 10 |  |  | > 10 | > 10 | > 10 | > 10 | > 10 | > 10 | 
CC(C)C(=O)/C=C/c1ccc(Cl)cc1 | > 100 | 51.7 |  | 27.8 |  | 42.3 | 21.7 | 23.1 |  |  | 23.8 | 35.4 | 40.6 | 33 | 22.2 |  | 
CN(C)CC(CO)(CN(C)C)CN(C)C | > 100 | > 100 | > 100 | > 100 |  | > 100 | > 100 | > 100 | > 100 | > 100 | > 100 |  | > 100 | > 100 |  | > 100 | > 100
CC(C)CC(=O)NC(NC(C)C)(C(F)(F)F)C(F)(F)F |  | > 100 | > 100 |  |  | > 100 | > 100 | > 100 | > 100 | > 100 | > 100 | > 100 | > 100 |  | > 100 | > 100 | > 100
CSc1ccc2c(cc1=O)C(NC(=O)c1ccc(OC(C)=O)cc1)CCc1cc(O)c(O)c(O)c1-2 (centres undefined) | 98.1 | > 100 | > 100 | 35.3 | > 100 | 50.4 | 31.5 | > 100 | > 100 |  | > 100 | 49.7 | 38.9 | 30.7 |  |  | 

Compound | TGI [1] [µM] | TGI [2] [µM] | TGI [3] [µM] | TGI [4] [µM] | TGI [5] [µM] | TGI [6] [µM] | TGI [7] [µM] | TGI [8] [µM] | TGI [9] [µM] | TGI [10] [µM] | TGI [11] [µM] | TGI [12] [µM] | TGI [13] [µM] | TGI [14] [µM] | TGI [15] [µM] | TGI [16] [µM] | TGI [17] [µM]
CC1(C)CN=C(Nc2ccc(Cl)cc2)S1 | > 100 | > 100 | > 100 | > 100 |  |  | > 100 | > 100 | > 100 | > 100 | > 100 | > 100 | > 100 | > 100 | > 100 | > 100 | > 100
CCOc1ccc(N=Nc2ccc3oc(=O)c(C(=O)Nc4ccc(OC)cc4)cc3c2)cc1 | 84.8 | 25.4 | > 100 | > 100 | > 100 |  | 38.8 | 93.9 | 68 | > 100 | > 100 | 54.4 | > 100 |  | 55.6 |  | 
O=C(N/N=C1/C(=O)c2c3ccccc3cc3cccc1c23)c1cccc(Cl)c1 | > 100 | > 100 |  |  | > 100 | > 100 | > 100 | > 100 | > 100 | > 100 | > 100 | > 100 | > 100 | > 100 | > 100 |  | > 100
COC(=O)C1CCC(Nc2cccc(C(F)(F)F)c2)=N1 (centres undefined) | > 100 | > 100 | > 100 | > 100 | > 100 | > 100 |  | > 100 | > 100 | > 100 | > 100 | > 100 | > 100 | > 100 | > 100 |  | 
CC(=O)OC1CC2(c3ccccc3)C(=O)c3ccccc3N2O1 (centres undefined) | > 100 | > 100 |  | > 100 | > 100 |  | > 100 | > 100 | > 100 |  |  |  | > 100 | > 100 |  |  | 
COc1ccc(C2ON(c3ccccn3)CC=C2C)cc1 (centres undefined) | > 100 | > 100 |  | > 100 |  | > 100 | > 100 | > 100 | > 100 | > 100 | > 100 | > 100 | > 100 | > 100 | > 100 |  | 
CC(C)OP(=O)(OC(C)C)/C(=N/N)NNc1ccc([N+](=O)[O-])cc1 |  | > 100 | > 100 |  | > 100 | > 100 | > 100 | > 100 | > 100 | > 100 | > 100 | > 100 | > 100 | > 100 | > 100 |  | 
COc1cc(C(C)c2cc3c(cc2OCCCCOc2cc4c(cc2C(C)c2cc(OC)c(OC)c(OC)c2)OCO4)OCO3)cc(OC)c1OC (centres undefined) | 91.8 | > 100 | > 100 | 91.3 |  | > 100 | > 100 | > 100 | > 100 | > 100 | > 100 | > 100 | > 100 | 99.4 | > 100 |  | 
Cc1ccc(CS(=O)(=O)C/N=c2\sc3ccccc3nc2/C=C(\O)c2ccc(Cl)cc2)cc1 | > 10 |  | > 10 | > 10 |  |  | > 10 | > 10 | > 10 | > 10 | > 10 |  | > 10 | > 10 | > 10 | > 10 | > 10
O=c1c2ccccc2nc(-c2ccccc2)n1NC(=S)Nc1ccc(Cl)cc1[N+](=O)[O-] | > 100 | > 100 | > 100 | > 100 | > 100 | > 100 | > 100 | > 100 | 82.4 | > 100 | > 100 | > 100 | > 100 | > 100 | > 100 |  | 
O=P1(Oc2ccc(Cl)cc2)OCCS1 (centres undefined) | > 100 | > 100 | > 100 | > 100 | > 100 | > 100 | > 100 | > 100 | > 100 |  |  | > 100 | > 100 | > 100 | > 100 |  | > 100
CC1(C)C2CCC3(OCCO3)C1C1OC12 (centres undefined) | > 100 | > 100 | > 100 | > 100 | > 100 | > 100 | > 100 | > 100 | > 100 | > 100 | > 100 | > 100 | > 100 | > 100 | > 100 |  | 
NC(=S)N1N=C2c3ccccc3CC[C@H]2[C@@H]1c1cccs1 | > 100 | 81.5 | > 100 | 58.1 | > 100 | > 100 |  | > 100 | > 100 |  | > 100 | 79 | > 100 | 60.8 | > 100 |  | 
CC12CC[C@H](O)C(C)(C)[C@H]1CC[C@](C)(O)C2COc1ccc2ccc(=O)oc2c1 (some centres undefined) | > 100 | > 100 | > 100 | > 100 | > 100 | > 100 |  | > 100 | > 100 |  | > 100 | > 100 | > 100 | > 100 | > 100 |  | 
O=C1c2nn(-c3ccccc3)nc2C(c2ccccc2)N1c1ccccc1 (centres undefined) |  | > 100 |  | > 100 |  | > 100 | > 100 | > 100 | > 100 | > 100 | > 100 | > 100 | > 100 | > 100 | > 100 |  | 
CC1C/C(=N\N(C)C)C(C#N)(C#N)C1(C#N)C#N (centres undefined) | > 67.3 | > 100 | 27.6 | 43.2 |  |  | 44.2 | 14.6 | > 78.6 | 3.38 | > 31.6 | 48.8 | 28 | 31.7 | 19.7 | 83.8 | 34
